Laboratory results from US20250223268A1, “4-Methylsulfonylbenzamide Compound, Preparation Method, Herbicidal Composition And Use” (Jiangsu Flag Chemical Industry Co., Ltd., priority 2022, published 2025).

tested on: Oryza sativa subsp. indica; test: Greenhouse herbicidal activity and crop safety comparison (Test Example 2); assay type: in vivo; settings: Rate 150 g/ha
Method in brief: (§1)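 Fresh weight inhibition, banded into grades A to E (E <20%), was rated 14-21 days after foliar spraying of 3-6 leaf plants, or 14-30 days after a soil spray applied 24 h post-sowing.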

Row | Structure (SMILES) | Oryza sativa subsp. indica, grading of fresh weight inhibition rate (crop safety)
1 | CCC(C)S(=O)(=O)c1c(S(C)(=O)=O)ccc(C(=O)Nc2nnc(C)o2)c1Cl (racemic) [Compound 3-24] | E (Fresh weight inhibition rate<20%)
2 | CCC(C)S(=O)(=O)c1c(S(C)(=O)=O)ccc(C(=O)Nc2nnco2)c1Cl (racemic) [Compound 3-290] | E (Fresh weight inhibition rate<20%)
3 | CCc1nnc(NC(=O)c2ccc(S(C)(=O)=O)c(S(=O)(=O)C(C)CC)c2Cl)o1 (racemic) [Compound 3-406] | E (Fresh weight inhibition rate<20%)
4 | CCC(C)S(=O)(=O)c1c(S(C)(=O)=O)ccc(C(=O)Nc2nnc(C(C)C)o2)c1Cl (racemic) [Compound 3-522] | E (Fresh weight inhibition rate<20%)
5 | CCC(C)S(=O)(=O)c1c(S(C)(=O)=O)ccc(C(=O)Nc2nnc(C3CC3)o2)c1Cl (racemic) [Compound 3-638] | E (Fresh weight inhibition rate<20%)

tested on: Oryza sativa subsp. japonica; test: as above; assay type: in vivo; settings: Rate 150 g/ha
Method in brief: as §1

Row | Structure (SMILES) | Oryza sativa subsp. japonica, grading of fresh weight inhibition rate (crop safety)
6 | CCC(C)S(=O)(=O)c1c(S(C)(=O)=O)ccc(C(=O)Nc2nnc(C)o2)c1Cl (racemic) [Compound 3-24] | E (Fresh weight inhibition rate<20%)
7 | CCC(C)S(=O)(=O)c1c(S(C)(=O)=O)ccc(C(=O)Nc2nnco2)c1Cl (racemic) [Compound 3-290] | E (Fresh weight inhibition rate<20%)
8 | CCc1nnc(NC(=O)c2ccc(S(C)(=O)=O)c(S(=O)(=O)C(C)CC)c2Cl)o1 (racemic) [Compound 3-406] | E (Fresh weight inhibition rate<20%)
9 | CCC(C)S(=O)(=O)c1c(S(C)(=O)=O)ccc(C(=O)Nc2nnc(C(C)C)o2)c1Cl (racemic) [Compound 3-522] | E (Fresh weight inhibition rate<20%)
10 | CCC(C)S(=O)(=O)c1c(S(C)(=O)=O)ccc(C(=O)Nc2nnc(C3CC3)o2)c1Cl (racemic) [Compound 3-638] | E (Fresh weight inhibition rate<20%)

tested on: Echinochloa crusgalli; test: as above; assay type: in vivo; settings: Rate 150 g/ha
Method in brief: as §1

Row | Structure (SMILES) | Echinochloa crusgalli, control efficacy grading (fresh weight inhibition rate)
11 | CCC(C)S(=O)(=O)c1c(S(C)(=O)=O)ccc(C(=O)Nc2nnc(C)o2)c1Cl (racemic) [Compound 3-24] | A (Fresh weight inhibition rate≥80% to 100%)
12 | CCC(C)S(=O)(=O)c1c(S(C)(=O)=O)ccc(C(=O)Nc2nnco2)c1Cl (racemic) [Compound 3-290] | A (Fresh weight inhibition rate≥80% to 100%)
13 | CCc1nnc(NC(=O)c2ccc(S(C)(=O)=O)c(S(=O)(=O)C(C)CC)c2Cl)o1 (racemic) [Compound 3-406] | A (Fresh weight inhibition rate≥80% to 100%)
14 | CCC(C)S(=O)(=O)c1c(S(C)(=O)=O)ccc(C(=O)Nc2nnc(C(C)C)o2)c1Cl (racemic) [Compound 3-522] | A (Fresh weight inhibition rate≥80% to 100%)
15 | CCC(C)S(=O)(=O)c1c(S(C)(=O)=O)ccc(C(=O)Nc2nnc(C3CC3)o2)c1Cl (racemic) [Compound 3-638] | A (Fresh weight inhibition rate≥80% to 100%)

tested on: Leptochloa chinensis; test: as above; assay type: in vivo; settings: Rate 150 g/ha
Method in brief: as §1

Row | Structure (SMILES) | Leptochloa chinensis, control efficacy grading (fresh weight inhibition rate)
16 | CCC(C)S(=O)(=O)c1c(S(C)(=O)=O)ccc(C(=O)Nc2nnc(C)o2)c1Cl (racemic) [Compound 3-24] | A (Fresh weight inhibition rate≥80% to 100%)
17 | CCC(C)S(=O)(=O)c1c(S(C)(=O)=O)ccc(C(=O)Nc2nnco2)c1Cl (racemic) [Compound 3-290] | A (Fresh weight inhibition rate≥80% to 100%)
18 | CCc1nnc(NC(=O)c2ccc(S(C)(=O)=O)c(S(=O)(=O)C(C)CC)c2Cl)o1 (racemic) [Compound 3-406] | A (Fresh weight inhibition rate≥80% to 100%)
19 | CCC(C)S(=O)(=O)c1c(S(C)(=O)=O)ccc(C(=O)Nc2nnc(C(C)C)o2)c1Cl (racemic) [Compound 3-522] | A (Fresh weight inhibition rate≥80% to 100%)
20 | CCC(C)S(=O)(=O)c1c(S(C)(=O)=O)ccc(C(=O)Nc2nnc(C3CC3)o2)c1Cl (racemic) [Compound 3-638] | A (Fresh weight inhibition rate≥80% to 100%)

tested on: Eclipta prostrata; test: Greenhouse herbicidal activity assay, post-emergence; assay type: in vivo; settings: Post-emergence test, rate 150 g a.i./hm^2; grade by fresh weight inhibition rate
Method in brief: (§2)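 Foliar spray at 3-6 leaves; pot-grown in nutrient soil in growth chamber; air-dried post-spray. Read-out at 14-21 d: fresh weight inhibition, graded A (≥80% to 100%) down to E (<20%); NT = not tested.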

Row | Structure (SMILES) | Control efficacy grade, Eclipta prostrata
21 | CCC(C)S(=O)(=O)c1c(S(C)(=O)=O)ccc(C(=O)Nc2nnc(C)o2)c1Cl (racemic) [Compound 3-24] | A (Fresh weight inhibition rate≥80% to 100%)
22 | CCC(C)S(=O)(=O)c1c(S(C)(=O)=O)ccc(C(=O)Nc2nnco2)c1Cl (racemic) [Compound 3-290] | A (Fresh weight inhibition rate≥80% to 100%)
23 | CCc1nnc(NC(=O)c2ccc(S(C)(=O)=O)c(S(=O)(=O)C(C)CC)c2Cl)o1 (racemic) [Compound 3-406] | A (Fresh weight inhibition rate≥80% to 100%)
24 | CCC(C)S(=O)(=O)c1c(S(C)(=O)=O)ccc(C(=O)Nc2nnc(C(C)C)o2)c1Cl (racemic) [Compound 3-522] | A (Fresh weight inhibition rate≥80% to 100%)
25 | CCC(C)S(=O)(=O)c1c(S(C)(=O)=O)ccc(C(=O)Nc2nnc(C3CC3)o2)c1Cl (racemic) [Compound 3-638] | A (Fresh weight inhibition rate≥80% to 100%)

tested on: Cyperus iria; test: as above; assay type: in vivo; settings: Post-emergence test, rate 150 g a.i./hm^2; grade by fresh weight inhibition rate
Method in brief: as §2

Row | Structure (SMILES) | Control efficacy grade, Cyperus iria
26 | CCC(C)S(=O)(=O)c1c(S(C)(=O)=O)ccc(C(=O)Nc2nnc(C)o2)c1Cl (racemic) [Compound 3-24] | A (Fresh weight inhibition rate≥80% to 100%)
27 | CCC(C)S(=O)(=O)c1c(S(C)(=O)=O)ccc(C(=O)Nc2nnco2)c1Cl (racemic) [Compound 3-290] | A (Fresh weight inhibition rate≥80% to 100%)
28 | CCc1nnc(NC(=O)c2ccc(S(C)(=O)=O)c(S(=O)(=O)C(C)CC)c2Cl)o1 (racemic) [Compound 3-406] | A (Fresh weight inhibition rate≥80% to 100%)
29 | CCC(C)S(=O)(=O)c1c(S(C)(=O)=O)ccc(C(=O)Nc2nnc(C(C)C)o2)c1Cl (racemic) [Compound 3-522] | A (Fresh weight inhibition rate≥80% to 100%)
30 | CCC(C)S(=O)(=O)c1c(S(C)(=O)=O)ccc(C(=O)Nc2nnc(C3CC3)o2)c1Cl (racemic) [Compound 3-638] | A (Fresh weight inhibition rate≥80% to 100%)

tested on: Echinochloa crusgalli; test: as above; assay type: in vivo; settings: Post-emergence test, rate 150 g a.i./hm^2; grade by fresh weight inhibition rate
Method in brief: as §2

Row | Structure (SMILES) | Control efficacy grade, Echinochloa crusgalli
31 | CCC(C)S(=O)(=O)c1c(S(C)(=O)=O)ccc(C(=O)Nc2nnc(C)o2)c1Cl (racemic) [Compound 3-24] | A (Fresh weight inhibition rate≥80% to 100%)
32 | CCC(C)S(=O)(=O)c1c(S(C)(=O)=O)ccc(C(=O)Nc2nnco2)c1Cl (racemic) [Compound 3-290] | A (Fresh weight inhibition rate≥80% to 100%)
33 | CCc1nnc(NC(=O)c2ccc(S(C)(=O)=O)c(S(=O)(=O)C(C)CC)c2Cl)o1 (racemic) [Compound 3-406] | A (Fresh weight inhibition rate≥80% to 100%)
34 | CCC(C)S(=O)(=O)c1c(S(C)(=O)=O)ccc(C(=O)Nc2nnc(C(C)C)o2)c1Cl (racemic) [Compound 3-522] | A (Fresh weight inhibition rate≥80% to 100%)
35 | CCC(C)S(=O)(=O)c1c(S(C)(=O)=O)ccc(C(=O)Nc2nnc(C3CC3)o2)c1Cl (racemic) [Compound 3-638] | A (Fresh weight inhibition rate≥80% to 100%)

tested on: Leptochloa chinensis; test: as above; assay type: in vivo; settings: Post-emergence test, rate 150 g a.i./hm^2; grade by fresh weight inhibition rate
Method in brief: as §2

Row | Structure (SMILES) | Control efficacy grade, Leptochloa chinensis
36 | CCC(C)S(=O)(=O)c1c(S(C)(=O)=O)ccc(C(=O)Nc2nnc(C)o2)c1Cl (racemic) [Compound 3-24] | A (Fresh weight inhibition rate≥80% to 100%)
37 | CCC(C)S(=O)(=O)c1c(S(C)(=O)=O)ccc(C(=O)Nc2nnco2)c1Cl (racemic) [Compound 3-290] | A (Fresh weight inhibition rate≥80% to 100%)
38 | CCc1nnc(NC(=O)c2ccc(S(C)(=O)=O)c(S(=O)(=O)C(C)CC)c2Cl)o1 (racemic) [Compound 3-406] | A (Fresh weight inhibition rate≥80% to 100%)
39 | CCC(C)S(=O)(=O)c1c(S(C)(=O)=O)ccc(C(=O)Nc2nnc(C(C)C)o2)c1Cl (racemic) [Compound 3-522] | A (Fresh weight inhibition rate≥80% to 100%)
40 | CCC(C)S(=O)(=O)c1c(S(C)(=O)=O)ccc(C(=O)Nc2nnc(C3CC3)o2)c1Cl (racemic) [Compound 3-638] | A (Fresh weight inhibition rate≥80% to 100%)

tested on: Digitaria sanguinalis; test: as above; assay type: in vivo; settings: Post-emergence test, rate 150 g a.i./hm^2; grade by fresh weight inhibition rate
Method in brief: as §2

Row | Structure (SMILES) | Control efficacy grade, Digitaria sanguinalis
41 | CCC(C)S(=O)(=O)c1c(S(C)(=O)=O)ccc(C(=O)Nc2nnc(C)o2)c1Cl (racemic) [Compound 3-24] | A (Fresh weight inhibition rate≥80% to 100%)
42 | CCC(C)S(=O)(=O)c1c(S(C)(=O)=O)ccc(C(=O)Nc2nnco2)c1Cl (racemic) [Compound 3-290] | A (Fresh weight inhibition rate≥80% to 100%)
43 | CCc1nnc(NC(=O)c2ccc(S(C)(=O)=O)c(S(=O)(=O)C(C)CC)c2Cl)o1 (racemic) [Compound 3-406] | A (Fresh weight inhibition rate≥80% to 100%)
44 | CCC(C)S(=O)(=O)c1c(S(C)(=O)=O)ccc(C(=O)Nc2nnc(C(C)C)o2)c1Cl (racemic) [Compound 3-522] | C (Fresh weight inhibition rate≥40% to <60%)
45 | CCC(C)S(=O)(=O)c1c(S(C)(=O)=O)ccc(C(=O)Nc2nnc(C3CC3)o2)c1Cl (racemic) [Compound 3-638] | B (Fresh weight inhibition rate≥260% to <80%)
